Measurements as given in the NIST ThermoML archive (doi:10.1021/je200668a).
Where “and” joins values, the source holds several entries; their conditions need not be identical. Identical values can stand only once. ± gives the expanded uncertainty stated by the source.

Conditions: Liquid, Pulse Transmission

O [water]
Conditions | speed of sound
288.13 K, 250900 kPa | 1878.5 ± 2.7 m/s
288.13 K, 300400 kPa | 1955.1 ± 2.9 m/s
288.13 K, 701000 kPa | 2453.9 ± 4 m/s
288.14 K, 150300 kPa | 1718.5 ± 2.4 m/s
288.15 K, 50900 kPa | 1550.1 ± 2 m/s
288.15 K, 349200 kPa | 2025.9 ± 3 m/s
288.15 K, 499800 kPa | 2225.2 ± 3.4 m/s
288.16 K, 99800 kPa | 1631.8 ± 2.2 m/s
288.16 K, 200200 kPa | 1800.9 ± 2.6 m/s
288.17 K, 99700 kPa | 1633.2 ± 2.2 m/s
288.17 K, 401300 kPa | 2098 ± 3.3 m/s
288.17 K, 561300 kPa | 2300.1 ± 3.6 m/s
288.17 K, 640700 kPa | 2391.2 ± 3.8 m/s
297.74 K, 702200 kPa | 2448.7 ± 3.9 m/s
297.78 K, 653200 kPa | 2402.2 ± 3.8 m/s
297.79 K, 250300 kPa | 1895.5 ± 2.9 m/s
297.79 K, 549700 kPa | 2286.1 ± 3.7 m/s
297.8 K, 499500 kPa | 2225.4 ± 3.4 m/s
297.82 K, 601700 kPa | 2346.1 ± 3.8 m/s
297.83 K, 300300 kPa | 1967.2 ± 3 m/s
297.84 K, 200200 kPa | 1819.5 ± 2.7 m/s
297.88 K, 50600 kPa | 1580.3 ± 2.2 m/s
297.88 K, 151000 kPa | 1743.2 ± 2.6 m/s
297.89 K, 400300 kPa | 2101.3 ± 3.2 m/s
297.9 K, 100 kPa | 1493.8 ± 1.9 m/s
297.9 K, 450500 kPa | 2165.2 ± 3.4 m/s
297.99 K, 99500 kPa | 1660.6 ± 2.6 m/s
298.05 K, 349200 kPa | 2035.4 ± 3 m/s
298.07 K, 699900 kPa | 2450.3 ± 3.9 m/s
298.09 K, 659800 kPa | 2412.6 ± 3.8 m/s
298.1 K, 599200 kPa | 2344.5 ± 3.7 m/s
298.11 K, 551300 kPa | 2287 ± 3.6 m/s
298.12 K, 350600 kPa | 2038.7 ± 3.1 m/s
298.15 K, 400500 kPa | 2103.8 ± 3.2 m/s
298.15 K, 500000 kPa | 2229.8 ± 3.4 m/s
298.16 K, 200800 kPa | 1821.6 ± 2.5 m/s
298.16 K, 300500 kPa | 1968.4 ± 3 m/s
298.18 K, 450300 kPa | 2167.6 ± 3.3 m/s
298.2 K, 50100 kPa | 1580.4 ± 2 m/s
298.24 K, 400400 kPa | 2102.3 ± 3.2 m/s
298.27 K, 150700 kPa | 1743.9 ± 2.5 m/s
298.28 K, 350900 kPa | 2038.4 ± 3 m/s
298.29 K, 249200 kPa | 1894.6 ± 2.8 m/s
298.3 K, 150800 kPa | 1745 ± 2.5 m/s
298.3 K, 299000 kPa | 1965.7 ± 3 m/s
298.31 K, 100400 kPa | 1662.8 ± 2.3 m/s
298.31 K, 250700 kPa | 1897.4 ± 2.8 m/s
298.34 K, 50200 kPa | 1580.9 ± 2 m/s
298.34 K, 199800 kPa | 1820.7 ± 2.6 m/s
298.35 K, 100 kPa | 1492.8 ± 1.9 m/s
298.36 K, 100400 kPa | 1664.2 ± 2.3 m/s
298.37 K, 100 kPa | 1492.2 ± 2 m/s
298.38 K, 699000 kPa | 2448 ± 3.9 m/s
298.41 K, 651700 kPa | 2400.7 ± 3.8 m/s
298.42 K, 449900 kPa | 2165.5 ± 3.3 m/s
298.43 K, 499700 kPa | 2225.8 ± 3.4 m/s
298.43 K, 549200 kPa | 2287.7 ± 3.6 m/s
298.45 K, 601800 kPa | 2347.7 ± 3.7 m/s
308.06 K, 400400 kPa | 2112.6 ± 3.2 m/s
308.07 K, 449300 kPa | 2173.3 ± 3.3 m/s
308.08 K, 300500 kPa | 1983.1 ± 2.9 m/s
308.09 K, 349400 kPa | 2048.7 ± 3.1 m/s
308.09 K, 400000 kPa | 2112.1 ± 3.2 m/s
308.09 K, 499500 kPa | 2230.5 ± 3.4 m/s
308.09 K, 559700 kPa | 2301.4 ± 3.6 m/s
308.09 K, 650800 kPa | 2402.2 ± 3.8 m/s
308.09 K, 703600 kPa | 2441.6 ± 4 m/s
308.1 K, 250500 kPa | 1913.4 ± 2.8 m/s
308.1 K, 299900 kPa | 1983.2 ± 2.9 m/s
308.1 K, 350900 kPa | 2048.9 ± 3.1 m/s
308.1 K, 601700 kPa | 2349.8 ± 3.8 m/s
308.1 K, 698500 kPa | 2446.7 ± 3.9 m/s
308.11 K, 100 kPa | 1515.3 ± 2 m/s
308.11 K, 160100 kPa | 1781.2 ± 2.5 m/s
308.11 K, 650700 kPa | 2402.3 ± 3.8 m/s
308.12 K, 149900 kPa | 1766.1 ± 2.5 m/s
308.12 K, 200400 kPa | 1840.6 ± 2.7 m/s
308.12 K, 200700 kPa | 1840.1 ± 2.7 m/s
308.12 K, 299900 kPa | 1984.1 ± 2.9 m/s
308.12 K, 400700 kPa | 2110.8 ± 3.2 m/s
308.13 K, 51000 kPa | 1606 ± 2 m/s
308.13 K, 349800 kPa | 2049.7 ± 3.1 m/s
308.13 K, 599600 kPa | 2344.5 ± 3.8 m/s
308.14 K, 99700 kPa | 1690.4 ± 2.3 m/s
308.14 K, 150300 kPa | 1766.1 ± 2.5 m/s
308.14 K, 449900 kPa | 2171.7 ± 3.3 m/s
308.14 K, 701600 kPa | 2447.4 ± 3.9 m/s
308.15 K, 100 kPa | 1514.3 ± 2 m/s and 1514.1 ± 2 m/s
308.15 K, 250800 kPa | 1913.1 ± 2.8 m/s
308.15 K, 450900 kPa | 2174.9 ± 3.3 m/s
308.15 K, 499400 kPa | 2232.5 ± 3.4 m/s
308.16 K, 111000 kPa | 1706.1 ± 2.3 m/s
308.16 K, 639800 kPa | 2388.9 ± 3.8 m/s
308.17 K, 50300 kPa | 1604.9 ± 2 m/s
308.17 K, 99800 kPa | 1690 ± 2.3 m/s
308.17 K, 200300 kPa | 1839.8 ± 2.7 m/s
308.17 K, 549700 kPa | 2292.4 ± 3.6 m/s
308.19 K, 250500 kPa | 1913.9 ± 2.8 m/s
308.19 K, 549600 kPa | 2291 ± 3.6 m/s
308.21 K, 499700 kPa | 2232.3 ± 3.4 m/s
308.22 K, 50600 kPa | 1605.5 ± 2 m/s
308.22 K, 599600 kPa | 2346.6 ± 3.7 m/s
318.02 K, 200600 kPa | 1860.6 ± 2.7 m/s
318.02 K, 350800 kPa | 2062 ± 3.1 m/s
318.06 K, 399700 kPa | 2122.5 ± 3.2 m/s
318.07 K, 99500 kPa | 1705.7 ± 2.3 m/s
318.09 K, 349600 kPa | 2062.1 ± 3.1 m/s
318.1 K, 200400 kPa | 1860.8 ± 2.7 m/s
318.1 K, 299400 kPa | 1995.8 ± 2.9 m/s
318.1 K, 300100 kPa | 1998.9 ± 2.9 m/s
